# Reference: patent US6582907B1, “Use of fluorescence correlation spectroscopy to identify compounds that bind to target species under isothermal denaturing conditions” (Pharmacia & Upjohn Company, priority 1999, dated 2003)
# Biological target: T1, HIV-1 protease (Human immunodeficiency virus type 1 group M subtype B, UniProt P04585)
# T1 construct: The enzyme HIV-1 protease exists as a dimer
# Experiment: Isothermal denaturation of Oregon Green-labelled HIV-1 protease monitored by fluorescence correlation spectroscopy (FCS)
# Type: binding
# Method: HIV-1 Protease. HIV-1 Protease was extensively dialyzed against 0.1 M sodium phosphate, 0.05% NaN3, pH 6.5, at 5° C., using a Pierce Slide-A-Lyzer™ (2,000 MWCO). The protease concentration was approximately 1 mg/mL. There was a slight turbidity after dialysis. Protease recovery was assumed to be 100% (53 nanomoles in 1.1 mL).
# A freshly prepared solution of Oregon Green™ Iodoacetamide (Molecular Probes Inc., Cat. No. O-6010; approximately 10 mM in DMSO) was added at zero and 5 hours of incubation to achieve at each time a 3-fold molar ratio of Oregon Green™ to protease. At approximately 8 hours another addition of a 4-fold molar excess was made. After each addition the solution was gently but thoroughly mixed. Incubations were without agitation at 5° C. and continued for 16 hours after the last addition.
# The resulting clear solution was chromatographed over a Bio-Gel P-6 Desalting Gel™ column (0.9 cm×25 cm) using 50% volume/volume (v/v) glacial acetic acid/distilled-water as the eluant. […]
# The solution of conjugated protease was 0.2 micron filtered and evaluated for Oregon Green™ concentration by extinction and for protease concentration by amino acid analysis. Spectrophotometric results determined an Oregon Green™ concentration of 1.94 μM. […]
# Microfuge tubes containing 1.5 mL buffer were placed in a pre-equilibrated 48° C. water bath and the temperature was monitored with a telethermometer. […]
# This material was diluted to 10 nM in a 2.0 mL teflon chamber already located on the microscope stage containing the same buffer at room temperature. […] Binning combines the fluorescence measurements from contiguous time-periods. […]
# The autocorrelated data were analyzed with a nonlinear least squares (NLLSF) fitting program based on that disclosed in Yamaoka et. al., J. Pharmacobio Dyn., 4, 8-15 (1981). […]
# In these experiments, since both native and denatured proteins exist, the calculated results represent an average value for the amount of material in the two states. […] The data were analyzed with weighting values of either zero or single inverse weighting. […]
# [1] = HIV-1 protease incubated with compound at 48° C. for 24 minutes, single inverse weighting, FIG. 8B
smiles,measurement,setting,value
CCC[C@@]1(CCc2ccccc2)CC(O)=C([C@H](CC)c2cccc(NS(=O)(=O)c3ccc(C(F)(F)F)cn3)c2)C(=O)O1 [PNU-140690],stabilization of HIV-1 protease against isothermal denaturation (change in apparent diffusion coefficient as a function of time),"48° C., time points 0 to 60 minutes, with vs without compound, FIG. 9",clearly stabilizes the enzyme
same,"G(0) (unimolecular model, autocorrelation curve)",[1],292×10^−3±11.7×10^−3
same,"diffusion coefficient (unimolecular model, autocorrelation curve)",[1],1.33×10^−6±0.09×10^−6
